Data taken from patent publication US6562378B1, “Nutritional supplement for adolescents” (TSAR Health Private Ltd., priority 2002, dated 2003).
Marks after values point to notes of the source that are not given here.

How the values were obtained:
Type in all cases: in vivo, human
Interleukin-2 = assay: Zinc dose response: interleukin-2; conditions: adolescents, median (standard deviation)
Procedure: (§1) The basic concept underlying the assessment of the most optimum nutrient amounts for a given age group uses the principle of “dose-response curves”. At least four groups of individuals were provided with various amounts of a given nutrient and their immune responses were measured using established and accepted techniques. The amount of a nutrient that gave the best response was considered the optimum amount. Dose response curves were determined for all vitamins and trace elements considered essential for human health, particularly immunity.
(§2) The ratio of radioactivity in the test samples divided by radioactivity in control samples gave the “stimulation response” shown in FIGS. 1 and 2.

Antibody response = assay: Zinc dose response: antibody response; conditions: adolescents
Procedure: as §1, §2

blood lymphocytes = assay: Zinc dose response: lymphocyte response to PHA (thymidine uptake, stimulation index); conditions: 13-18 year old adolescents, median (standard deviation)
Procedure: as §1
Data for the dose response curve for zinc in a group of 13-18 year old adolescents is shown in FIGS. 1 and 2, with the total amount of zinc taken is shown for each group. To determine the magnitude of immune response, an aliquot of blood was withdrawn from each subject in the study, blood lymphocytes were separated, washed and mixed with the mitogen phytohemagglutinin (PHA) in previously determined optimum amount. The optimum amount of PHA used in the experiments was predetermined by a set of dose response curves using lymphocytes of a healthy donor and four different concentrations of PHA. After culture in a sterile environment for 72 hours, the cells were washed and mixed with radioactive thymidine. The same steps were undertaken in a control sample in which only the culture medium was used, not PHA. The cells were washed and radioactivity determined.
as §2

Thymulin activity = assay: Zinc dose response: thymulin activity; conditions: adolescents
Procedure: as §1, §2

[1] = supplemental zinc 11 mg/day plus 7 mg in diet
[2] = supplemental zinc 28 mg/day plus 7 mg in diet
[3] = supplemental zinc 55 mg/day plus 7 mg in diet

## [Zn] [zinc]
Interleukin-2; [1]
  Interleukin-2: 17 (1.4) units/ml
Interleukin-2; [2]
  Interleukin-2: 11 (1.5) units/ml
Interleukin-2; [3]
  Interleukin-2: 9 (1.1) units/ml
Antibody response; [1]
  Antibody response (median reciprocal titre): 254
Antibody response; [2]
  Antibody response (median reciprocal titre): 136
Antibody response; [3]
  Antibody response (median reciprocal titre): 97
Blood lymphocytes; [1]
  Lymphocyte Response to PHA (stimulation index): 77 (8)
Blood lymphocytes; [2]
  Lymphocyte Response to PHA (stimulation index): 51 (6)
Blood lymphocytes; [3]
  Lymphocyte Response to PHA (stimulation index): 40 (7)
Thymulin activity; [1]
  Thymulin activity (median reciprocal titer): 114*
Thymulin activity; [2]
  Thymulin activity (median reciprocal titer): 123*
Thymulin activity; [3]
  Thymulin activity (median reciprocal titer): 106*
